The values below are quoted from earlier work in patent US11964949B2, “Substituted phenyloxazolidinones for antimicrobial therapy” (priority 2015, dated 2024).

This series relates to Mycobacterium tuberculosis, including multidrug-resistant (MDR) and extensively drug resistant (XDR) strains. Conditions: M. tuberculosis incl. MDR and XDR strains; cited from earlier work.

As for `CC(=O)NC[C@H]1CN(c2ccc(N3CCOCC3)c(F)c2)C(=O)O1` [Linezolid], the “minimum inhibitory concentration (MIC)” value is on record as “less than 1 ag/ml”.
